Tests used:
[1] = system: BxPC3 (expressing wild type K-Ras); assay: Proliferation Assay (Cell Viability Assay); type: cell-based; details: Homo sapiens, BXPC-3; BxPC3, pancreatic, KRas WT
Description: (§1) Cell lines: these Human tumor-derived cell lines were purchased from American Type Culture Collection. Human tumor-derived pancreatic cancer cell line MiaPaca-2 (expressing KRAS G12C mutant) and Panc-1 (expressing KRas G12D mutant), and Human non-small cell lung cancer (NSCLC) cell line A549 (expressing KRas G12S mutant), and Human melanoma cell line A375 (wild type Kras) were grown in complete DMEM-High Glucose medium. Human tumor-derived pancreatic cancer cell lines SU86.86 (expressing KRas G12D mutant), BxPC3 (expressing wild type K-Ras), and Human non-small cell lung cancer (NSCLC) cell lines NCI-H441 (expressing KRas G12S mutant), NCI-H1975 (expressing wild type KRas), NCI-H358 (expressing KRas G12C mutant), NCI-H1299 (expressing NRas Q61H mutant), and Human colon cancer cell line SW-620 (expressing KRas G12V mutant), Human triple negative breast cancer cell line HCC-1806 (expressing wild type KRas), and Human tumor-derived multiple myeloma cell line MM.1R (expressing wild type KRAS), were grown in RPMI 1640 medium. Human tumor-derived breast cancer cell line BT-549 (expressing wild type KRAS) was grown in RPMI 1640 medium in the presence of 11.8U insulin. Human tumor-derived pancreatic cancer cell line HPAF-II (expressing KRas G12D mutant), Human triple negative breast cancer cell line BT-20 (expressing wild type KRas), and Human colon cancer cell line LS123 (expressing KRas G12S mutant), were grown in EMEM medium. Human tumor-derived pancreatic cancer cell line CF-PAC1 (expressing KRas G12V mutant) was frown in IMDM medium, and Human colon cancer cell line HT29 (expressing wild type KRas) was grown in McCoy's 5A medium. The colon cancer cell line GP2d (expressing KRas G12D mutant) was purchased from MilliporeSigma and grown in DMEM-High Glucose medium. All cell lines were supplemented with penicillin (100 U/mL), streptomycin (100 μg/mL), and 10% heat-inactivated FBS at 37° C. in a humidified incubator with 5% CO2.
(§2) Method: Cells were plated at 2000 to 5000 cells/well density in 96-wells plate and cultured overnight. Small molecules that were tested were added to the cells in the final concentration of 10 μM in the presence of 0.3% DMSO and 10% FBS, and incubated for 2-4 days at 37° C. in a humidified incubator with 5% CO2. For IC50 value determination, serial dilutions of compounds were added to cells under the same conditions.
(§3) Assay: At the end of the incubation period, cell viability was determined using the CellTiter 96® Aqueous One Solution Cell Proliferation Assay according to manufacturer specifications (Promega, Madison, WI). The percentage of small molecules inhibition of cellular proliferation was calculated from raw data.

[2] = system: HPAF-II (expressing KRas G12D mutant); assay: Proliferation Assay (Cell Viability Assay); type: cell-based; details: Homo sapiens, pancreatic
Description: as §1, §2, §3

[3] = system: CF-PAC1 (expressing KRas G12V mutant); assay: Proliferation Assay (Cell Viability Assay); type: cell-based; details: Homo sapiens, CFPAC-1, CF-PAC1, pancreatic
Description: as §1, §2, §3

[4] = system: NCI-H1975 (expressing wild type KRas); assay: Proliferation Assay (Cell Viability Assay); type: cell-based; details: Homo sapiens; NCI-H1975, NSCLC, KRas WT
Description: as §1, §2, §3

[5] = system: HT29 (expressing wild type KRas); assay: Proliferation Assay (Cell Viability Assay); type: cell-based; details: Homo sapiens, HT-29; HT29, colon, KRas WT
Description: as §1, §2, §3

[6] = system: BT-20 (expressing wild type KRas); assay: Proliferation Assay (Cell Viability Assay); type: cell-based; details: Homo sapiens; BT-20, Breast (TNBC), KRas WT
Description: as §1, §2, §3

[7] = system: LS123 (expressing KRas G12S mutant); assay: Proliferation Assay (Cell Viability Assay); type: cell-based; details: Homo sapiens, LS-123, colon
Description: as §1, §2, §3

[8] = system: NCI-H1299 (expressing NRas Q61H mutant); assay: Proliferation Assay (Cell Viability Assay); type: cell-based; details: Homo sapiens; NCI-H1299, NSCLC, Q61H (N-Ras)
Description: as §1, §2, §3

[9] = system: SU86.86 (expressing KRas G12D mutant); assay: Proliferation Assay (Cell Viability Assay); type: cell-based; details: Homo sapiens, SU.86.86, SU86.86, pancreatic
Description: as §1, §2, §3

[10] = system: HCC-1806 (expressing wild type KRas); assay: Proliferation Assay (Cell Viability Assay); type: cell-based; details: Homo sapiens, HCC1806; HCC-1806, Breast (TNBC), KRas WT
Description: as §1, §2, §3

[11] = system: NCI-H441 (expressing KRas G12S mutant); assay: Proliferation Assay (Cell Viability Assay); type: cell-based; details: Homo sapiens, NCI-H441, NSCLC
Description: as §1, §2, §3

[12] = system: Panc-1 (expressing KRas G12D mutant); assay: Proliferation Assay (Cell Viability Assay); type: cell-based; details: Homo sapiens, Panc1, pancreatic
Description: (§4) Cell lines: Human tumor-derived cell lines were purchased from American Type Culture Collection. Human tumor-derived pancreatic cancer cell line MiaPaca-2 (expressing KRAS G12C mutant) and Panc-1 (expressing KRas G12D mutant), and Human non-small cell lung cancer (NSCLC) cell line A549 (expressing KRas G12S mutant) were grown in complete DMEM-High Glucose medium. Human colon cancer cell line SW-620 (expressing KRas G12V mutant) was grown in RPMI 1640 medium. All cell lines were supplemented with penicillin (100 U/mL), streptomycin (100 μg/mL), and 10% heat-inactivated FBS at 37° C. in a humidified incubator with 5% CO2.
as §2, with “to be” for “that were”, “FBS” for “FBS,”
as §3, §1, §2

[13] = system: A549 (expressing KRas G12S mutant); assay: Proliferation Assay (Cell Viability Assay); type: cell-based; details: Homo sapiens, A549, NSCLC
Description: as §4
as §2, with “to be” for “that were”, “FBS” for “FBS,”
as §3, §1, §2

[14] = system: SW-620 (expressing KRas G12V mutant); assay: Proliferation Assay (Cell Viability Assay); type: cell-based; details: Homo sapiens, SW-620, colon
Description: as §4
as §2, with “to be” for “that were”, “FBS” for “FBS,”
as §3, §1, §2

active/cleaved caspase 9 = assay: Cell-based caspase activation assay (western blot); design: species or system human

IC50 [1] [nM]	IC50 [4] [nM]	IC50 [5] [nM]	IC50 [6] [nM]	IC50 [8] [nM]	IC50 [10] [nM]	IC50 [11] [nM]	IC50 [12] [nM]	IC50 [13] [nM]	IC50 [14] [nM]	Compound	IC50 [2] [nM]	IC50 [3] [nM]	IC50 [7] [nM]	IC50 [9] [nM]	Caspase 9 activation (active/cleaved caspase 9; HCC1806, after 48 hours)	Caspase 9 activation (active/cleaved caspase 9; NCI-H358, after 48 hours)
< 150	510 to 1000	< 150	< 150	< 150	510 to 1000	510 to 1000	< 150	510 to 1000	150 to 500	COc1cc(Nc2nc(-c3nccn3C)nn3cc(-c4ccn(C(C)C)n4)c(C)c23)ncn1 [Compound 6, 6-(1-Isopropyl-1H-pyrazol-3-yl)-N-(6-methoxypyrimidin-4-yl)-5-methyl-2-(1-methyl-1H-imidazol-2-yl)pyrrolo[2,1-f][1,2,4]triazin-4-amine]	< 150	< 150	< 150	150 to 500	–	–
–	–	–	–	–	–	–	–	–	–	Cc1c(-c2ccn(C)n2)cn2nc(-c3nccn3C)nc(Nc3cc4n(n3)CCO4)c12 [Compound 124, N-(5-Methyl-2-(1-methyl-1H-imidazol-2-yl)-6-(1-methyl-1H-pyrazol-3-yl)pyrrolo[2,1-f][1,2,4]triazin-4-yl)-2,3-dihydropyrazolo[5,1-b]oxazol-6-amine]	–	–	–	–	yes	yes

Reference: US12459951B2, “Compounds that interact with RAS superfamily proteins for treatment of cancers, inflammatory diseases, rasopathies, and fibrotic disease” (SHY Therapeutics, LLC, priority 2022, dated 2025)
